Experimental data as given in BindingDB's records for doi:10.1021/jm00126a013 (University of California, 1989).

Target: Vesicular acetylcholine transporter (Torpedo californica)
Test: Inhibition of active transport of [3H]acetylcholine using purified Torpedo californica synaptic vesicles

In the case of `COc1ccccc1N1CCN(C2CC3CCCCC3CC2O)CC1` (configuration not stated), the IC50 is reported as 300 nM.

Target: Vesicular acetylcholine transporter (Torpedo californica)
Test: as above
Remark: another data set of the same source

Point of comparison: `CC1(c2ccccc2)CCCN(C2CCCCC2O)C1` (configuration not stated), IC50 4000 nM. Against it:
- O=C(CCCCC1SCC2NC(=O)NC21)NCC(=O)NCC(=O)Nc1cccc2c1CC(N1CCC(c3ccccc3)CC1)C(O)C2 (configuration not stated) — 20-fold lower, 200 nM
- O[C@@H]1[C@H](O)CCC[C@H]1N1CCC(c2ccccc2)CC1 — 40-fold lower, 100 nM
- OC1CCCCC1N1CCCCC1 (configuration not stated) — higher, > 40000 nM
- CCC(O)C[N+]1(C)CCC(c2ccccc2)CC1 (configuration not stated) — 2-fold lower, 2000 nM
- OC1CCCCC1N1CC=C(c2ccc(Cl)cc2)CC1 (configuration not stated) — 20-fold lower, 200 nM
- OC1CCCCC1N1C=NC(c2ccccc2)C1 (configuration not stated) — 10-fold higher, 40000 nM
- Nc1cccc2c1CC(N1CCC(c3ccccc3)CC1)C(O)C2 (configuration not stated) — 40-fold lower, 100 nM
- O=C(CCCCC1SCC2NC(=O)NC21)Nc1cccc2c1CC(N1CCC(c3ccccc3)CC1)C(O)C2 (configuration not stated) — 40-fold lower, 100 nM
- CC(=O)OCC[N+]1(C)CCC(c2ccccc2)CC1 (configuration not stated) — the same, 4000 nM
- OC1CCCCC1N1CCN(c2ccccc2)CC1 (configuration not stated) — 13-fold lower, 300 nM
- CN(CCCc1ccccc1)C1CCCCC1O (configuration not stated) — 2-fold lower, 2000 nM
- C[N+]1(CCO)CCC(c2ccccc2)CC1 (configuration not stated) — 2-fold higher, 8000 nM
- Nc1ccc(C2CCN(C3CCCCC3O)CC2)cc1 (configuration not stated) — 8-fold lower, 500 nM
- CC(=O)OC1CCCCC1N1CCC(c2ccccc2)CC1 (configuration not stated) — 2-fold lower, 2000 nM
- CN(CCc1ccccc1)C1CCCCC1O (configuration not stated) — 5-fold higher, 20000 nM
- CNc1ccc(C2CCN(C3CCCCC3O)CC2)cc1 (configuration not stated) — 10-fold lower, 400 nM
- O=C(O)CCC(=O)Nc1cccc2c1CC(N1CCC(c3ccccc3)CC1)C(O)C2 (configuration not stated) — 80-fold lower, 50 nM
- OC1CCCCC1N1CC=C(c2ccccc2)CC1 (configuration not stated) — 20-fold lower, 200 nM
- OC1CN(C2CCCCC2O)CCC1c1ccccc1 (configuration not stated) — 20-fold lower, 200 nM
- COc1ccc2c3c1OC1C(O)C=CC4C(C2)N(C2CCCCC2O)CCC341 (configuration not stated) — 20-fold higher, 80000 nM
- OC1CCCCC1NC1CCc2ccccc21 (configuration not stated) — within 1.5-fold, 3000 nM
- CC(C)(C)[C@H]1CC[C@@H](N2CCC(c3ccccc3)CC2)[C@H](O)C1 — 44-fold lower, 90 nM
- O=C(O)CCC(=O)Nc1cccc2c1CC(O)C(N1CCC(c3ccccc3)CC1)C2 (configuration not stated) — 8-fold lower, 500 nM
- CC(=O)Nc1ccc(I)c2c1CC(N1CCC(c3ccccc3)CC1)C(O)C2 (configuration not stated) — 13-fold lower, 300 nM
- O=c1[nH]c2ccccc2n1C1CCN(C2CCCCC2O)CC1 (configuration not stated) — 4-fold lower, 1000 nM
- O=C(Nc1cccc2c1CC(O)C(N1CCC(c3ccccc3)CC1)C2)C(F)(F)F (configuration not stated) — 2-fold lower, 2000 nM
- CN(C)c1ccc(C2CCN(C3CCCCC3O)CC2)cc1 (configuration not stated) — 13-fold lower, 300 nM
- CCC(CN1CCC(c2ccccc2)CC1)OC(C)=O (configuration not stated) — 5-fold lower, 800 nM
- CCC(O)CN1CCC(c2ccccc2)CC1 (configuration not stated) — 13-fold lower, 300 nM
- CC1(O)CCCC[C@H]1N1CCC(c2ccccc2)CC1 (some centres not stated) — 1.5-fold higher, 6000 nM
- OC1CCCCC1N1CCC(c2ccc(Cl)cc2)CC1 (configuration not stated) — 40-fold lower, 100 nM
- CC1CN(C2CCCCC2O)CCN1c1ccccc1 (configuration not stated) — 13-fold lower, 300 nM
- OC1CCCCC1N1CCN(Cc2ccc3c(c2)OCO3)CC1 (configuration not stated) — 13-fold lower, 300 nM
- OC1CCCCC1N1CCC(CCC2CCN(C3CCCCC3O)CC2)CC1 (configuration not stated) — not separable, > 1000 nM
- SC1CCCCC1N1CCC(c2ccccc2)CC1 (configuration not stated) — the same, 4000 nM
- Cc1ccc(C)c(N2CCN(C3CCCCC3O)CC2)c1 (configuration not stated) — 40-fold lower, 100 nM
- CC(=O)Nc1ccc(C2CCN(C3CCCCC3O)CC2)cc1 (configuration not stated) — 5-fold higher, 20000 nM
- O=C1CCC2(O)C3Cc4ccc(O)c5c4C2(CCN3C2CCCCC2O)C1O5 (configuration not stated) — higher, > 100000 nM
- CC(=O)OCCN1CCC(c2ccccc2)CC1 — 2.2-fold higher, 9000 nM
- CN(Cc1ccccc1)C1CCCCC1O (configuration not stated) — 2.5-fold higher, 10000 nM
- OC1CCCCC1N1CCC(Cc2ccccc2)CC1 (configuration not stated) — 13-fold lower, 300 nM
- CC(=O)OC1CCCCC1[N+]1(C)CCC(c2ccccc2)CC1 (configuration not stated) — within 1.5-fold, 5000 nM
- O=[N+]([O-])c1ccc(C2CCN(C3CCCCC3O)CC2)c([N+](=O)[O-])c1 (configuration not stated) — 13-fold lower, 300 nM
- OC1CCCCC1N1CCC(CCCc2ccccc2)CC1 (configuration not stated) — 57-fold lower, 70 nM
- CC(=O)Nc1cccc2c1CC(O)C(N1CCC(c3ccccc3)CC1)C2 (configuration not stated) — not separable, > 2000 nM
- O[C@H]1[C@H](N2CCC(c3ccccc3)CC2)CCC[C@H]1c1ccccc1 — 6.7-fold lower, 600 nM
- OC[C@H]1CC[C@@H](O)[C@H](N2CCC(c3ccccc3)CC2)C1 — 5-fold lower, 800 nM
- OC1CCCCC1N1CCC(CCCC2CCN(C3CCCCC3O)CC2)CC1 (configuration not stated) — 20-fold lower, 200 nM
- OC1CCCCC1N1CC2CCC(CC2)C1 (configuration not stated) — 5-fold higher, 20000 nM
- O=[N+]([O-])c1ccc(C2CCN(C3CCCCC3O)CC2)cc1 (configuration not stated) — 40-fold lower, 100 nM
- OC1C2CCC1C(N1CCC(c3ccccc3)CC1)C2 (configuration not stated) — 2.5-fold higher, 10000 nM
- Nc1cccc2c1CC(O)C(N1CCC(c3ccccc3)CC1)C2 (configuration not stated) — 13-fold lower, 300 nM
- OC1CCCC1N1CCC(c2ccccc2)CC1 (configuration not stated) — 2-fold lower, 2000 nM
- O=C(c1ccccc1)N1CCN(C2CCCCC2O)CC1 (configuration not stated) — 2.5-fold higher, 10000 nM
- O=C1CCCCC1N1CCC(c2ccccc2)CC1 (configuration not stated) — 10-fold higher, 40000 nM
- C[N+]1(C2CCCCC2O)CCC(c2ccccc2)CC1 (configuration not stated) — not separable, > 1000 nM
- OCCN1CCC(c2ccccc2)CC1 — 2.5-fold higher, 10000 nM
- CO[C@H]1CCC[C@@H](N2CCC(c3ccccc3)CC2)[C@@H]1O — 2-fold lower, 2000 nM
- Cc1ccccc1N1CCN(C2CCCCC2O)CC1 (configuration not stated) — 40-fold lower, 100 nM
- OC1CCCCC1N1CCC(C2CCN(C3CCCCC3O)CC2)CC1 (configuration not stated) — 20-fold lower, 200 nM
- COc1ccc(N2CCN(C3CCCCC3O)CC2)cc1 (configuration not stated) — 13-fold lower, 300 nM
- O[C@@H]1CCCC[C@H]1CN1CCC(c2ccccc2)CC1 — 2-fold lower, 2000 nM
- O[C@H]1CCCC[C@H]1CN1CCC(c2ccccc2)CC1 — 4-fold lower, 1000 nM
- O=C(CCC(=O)Nc1cccc2c1CC(N1CCC(c3ccccc3)CC1)C(O)C2)NNC(=O)CCC(=O)Nc1cccc2c1CC(N1CCC(c3ccccc3)CC1)C(O)C2 (configuration not stated) [N-[6-Hydroxy-7-(4-phenyl-piperidin-1-yl)-5,6,7,8-tetrahydro-naphthalen-1-yl]-4-(N'-{3-[6-hydroxy-7-(4-phenyl-piperidin-1-yl)-5,6,7,8-tetrahydro-naphthalen-1-ylcarbamoyl]-propionyl}-hydrazino)-4-oxo-butyramide] — 4-fold lower, 1000 nM
- CC(C)(C)[C@H]1CC[C@@H](O)[C@H](N2CCC(c3ccccc3)CC2)C1 [trans-(4S)-4-tert-butyl-2-(4-phenylpiperidin-1-yl)cyclohexanol] — 200-fold lower, 20 nM
